pEC50, pIC50: −log10 of the molar value. Read-outs that look alike come from different tables or passages of the source.
Tests used:
[1] = biological target: HEK293 membranes over-expressing WFS-1 (Homo sapiens (Human), UniProt O76024); test: Radioligand displacement assay (tritiated Compound 136 probe); format: binding; settings: displacement of tritiated Compound 136
Protocol: Cell pellets were re-suspended in 15 times packed cellular volume in 4° C. hypotonic lysis buffer (10 mM HEPES, pH 7.5 containing 1×Protease inhibitor, 0.5 mM EDTA and 2 mM DTT). Re-suspended cells were homogenized with 6-8 strokes in a dounce homogenizer kept on ice. Lysates were centrifuged at 500×G for 15 minutes at 4° C. without brake to decelerate rotor. Following centrifugation, remove the supernatant to a fresh tube and place on ice (Supernatant 1). Repeat the above steps on the lysed cell pellet using 0.5 the original volume of hypotonic lysis buffer and remove the 500× G supernatant (Supernatant 2) and combine with Supernatant 1. Transfer the combined supernatants to a 45-Ti ultracentrifuge tube and centrifuge at 100,000× G for 30 minutes. Following ultracentrifugation, carefully remove the supernatant and discard. Resuspend the 100,000× G pellet in cold resuspension buffer (10 mM HEPES, pH 7.5, 300 mM NaCl containing 1× Protease inhibitor, 1× EDTA and 2 mM DTT). Centrifuge sample at 500× G for 10 minutes with no brake and remove any cloudy, flocculent material. Resuspend pellet in resuspension buffer to approximately 2 mg/mL of protein concentration for use in radioligand binding assay and immunoblotting.
The binding affinities of compounds were determined by measuring the competitive displacement of a tritiated Compound 136 probe from purified HEK293 membranes over-expressing WFS-1. The data for the radioligand displacement assay are summarized in Table 47: A<0.06 μM; 0.06 μM≤B<0.6 μM; 0.6 μM≤C<3.0 μM; D≥3.0 μM.
The probe Kd was determined by titrating tritiated probe under the standard assay conditions plus and minus excess unlabeled probe and fitting the resulting data to a “One site—Total and nonspecific binding” model in Graphpad Prism, version 6.0, San Diego, CA, US. Initially, 0.25 μl of compound dissolved in DMSO at varying concentrations was dispensed to a 384 well plate. Membrane and probe were both prepared at 2× their final concentration in 1× assay buffer as described above. 25 μL of membrane was added to the wells and incubated for 10 minutes. 25 μL of diluted probe was then added to the wells. The assay was incubated for 90 minutes at room temperature. The entire assay volume was then transferred to Millipore GF/B 384-well plates pretreated with 15 μL 0.5% PEI. The filter plates were washed 3× with 75 μL 25 mM TRIS, ph7.5, 0.1% BSA and then dried overnight. Following addition of 45 μL UltimaGold scintillant, the samples were counted in a Perkin Elmer Topcount. The radioactivity remaining is a measure of bound probe. From the bound probe vs concentration of compound titration curve, the IC50 is determined by fitting the data to a standard 3 parameter IC50 model using either Graphpad Prism, version 6.0, San Diego, CA, US, or using GeneData Analyzer, Basel, Switzerland.

Colo-205 cells = test: Calcium flux assay (FLIPR Calcium 5); format: cell-based; settings: Homo sapiens, COLO 205, 0.6 h, FLIPR Calcium 5, measured over 36 minutes
Protocol: Compounds described herein induced ER stress by causing intracellular calcium flux. Calcium flux was measured in Colo-205 cells using the FLTPR® Calcium 5 Assay Kit according to manufacter's protocol (Molecular Devices, Cat. #R8186) on a FLIPR3 system (Molecular Devices). Calcium flux is measured over 36 minutes. The Colo-205 calcium flux assay data are summarized in Table 47: A<0.6 μM; 0.6 μM≤B<2.0 μM; 2.0 μM≤C<10.0 μM; D≥10.0 μM.

[2] = test system: β-catenin-TCF-mediated reporter transcription activity in Colo 205 cells; test: Colo 205 reporter assay (TCF/LEF luciferase); format: cell-based; settings: Colo 205 TCF/LEF luciferase reporter, read-out: TCF reporter Colo205 IC50
Procedure, shortened: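 Luciferase signal from a TCF/LEF-driven reporter, stably integrated in Colo 205 colon cancer cells, was measured 5 h after compound addition.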

[3] = Homo sapiens, COLO 205, 5 h, five hours after addition of compound

Sequence of HEK293 membranes over-expressing WFS-1 (O76024 whole entry): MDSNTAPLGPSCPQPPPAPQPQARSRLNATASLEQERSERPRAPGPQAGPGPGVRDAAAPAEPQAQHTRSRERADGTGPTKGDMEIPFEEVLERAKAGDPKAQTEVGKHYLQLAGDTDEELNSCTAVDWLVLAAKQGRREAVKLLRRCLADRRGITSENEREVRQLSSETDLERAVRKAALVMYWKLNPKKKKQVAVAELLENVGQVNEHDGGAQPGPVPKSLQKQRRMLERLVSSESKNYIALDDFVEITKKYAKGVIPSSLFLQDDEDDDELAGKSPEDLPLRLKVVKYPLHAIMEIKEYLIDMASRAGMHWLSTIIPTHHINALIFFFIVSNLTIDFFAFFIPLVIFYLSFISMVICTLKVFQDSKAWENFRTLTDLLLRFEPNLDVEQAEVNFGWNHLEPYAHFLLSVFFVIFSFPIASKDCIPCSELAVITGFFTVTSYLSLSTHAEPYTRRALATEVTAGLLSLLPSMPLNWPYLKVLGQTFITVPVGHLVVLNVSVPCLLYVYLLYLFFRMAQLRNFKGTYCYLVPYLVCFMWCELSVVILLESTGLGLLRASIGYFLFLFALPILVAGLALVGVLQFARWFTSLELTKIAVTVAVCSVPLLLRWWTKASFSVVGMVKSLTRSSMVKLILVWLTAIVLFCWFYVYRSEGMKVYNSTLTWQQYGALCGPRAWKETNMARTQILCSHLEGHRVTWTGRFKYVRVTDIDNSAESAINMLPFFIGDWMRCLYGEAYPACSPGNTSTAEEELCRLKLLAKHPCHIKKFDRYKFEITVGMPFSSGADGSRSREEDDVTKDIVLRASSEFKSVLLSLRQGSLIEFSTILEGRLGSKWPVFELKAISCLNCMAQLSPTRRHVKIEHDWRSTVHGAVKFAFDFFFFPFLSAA

SMILES	pIC50 [2, 3]	also measured
Cc1nc(N[C@@H](C)c2cnn(Cc3ccc(C(F)(F)F)nc3)c2)nc2c1NC(=O)[C@H](C)N2C [Compound 216, (7S)-4,7,8-Trimethyl-2-(((S)-1-(1-((6-(trifluoromethyl)pyridin-3-yl)methyl)-1H-pyrazol-4-yl)ethyl)amino)-7,8-dihydropteridin-6(5H)-one]	≤ 5.30	pIC50 [1]: ≤ 5.52; pEC50 (Colo-205 cells): ≤ 5.00
Cc1nc(N[C@H]2C[C@H](Oc3cc(F)c(F)c(F)c3)C2)nc2c1NC(=O)[C@H](COC(C)(C)C)N2C [Compound 674, (S)-7-(tert-butoxymethyl)-4,8-dimethyl-2-((trans-3-(3,4,5-trifluorophenoxy)cyclobutyl)amino)-7,8-dihydropteridin-6(5H)-one]	> 6.52	
CO[C@H](C)[C@H]1C(=O)Nc2c(C)nc(N[C@H]3C[C@@H](Cc4nc(C(F)(F)F)no4)C3)nc2N1C [Compound 664, (S)-7-((R)-1-methoxyethyl)-4,8-dimethyl-2-(((1s,3R)-3-((3-(trifluoromethyl)-1,2,4-oxadiazol-5-yl)methyl)cyclobutyl)amino)-7,8-dihydropteridin-6(5H)-one]		pIC50 ([2]; five hours after addition of compound): 6.00 to 6.52
Cc1ccc(OC[C@H]2C[C@@H](Nc3nc(C)c4c(n3)N(C)[C@@H](C(C)C)C(=O)N4)C2)cn1 [Compound 571, (S)-7-isopropyl-4,8-dimethyl-2-((cis-3-(((6-methylpyridin-3-yl)oxy)methyl)cyclobutyl)amino)-7,8-dihydropteridin-6(5H)-one]	6.00 to 6.52	
Cc1nc(NC2CN(C(=O)c3ccc(C(F)(F)F)o3)C2)nc2c1NC(=O)[C@H](C(C)C)N2C [Compound 621, (S)-7-isopropyl-4,8-dimethyl-2-((1-(5-(trifluoromethyl)furan-2-carbonyl)azetidin-3-yl)amino)-7,8-dihydropteridin-6(5H)-one]	6.00 to 6.52	
Cc1nc(NCc2cnn(-c3ccc(F)cc3F)c2)nc2c1NC(=O)[C@H](C)N2C [Compound 98, (7S)-2-(((1-(2,4-difluorophenyl)-1H-pyrazol-4-yl)methyl)amino)-4,7,8-trimethyl-7,8-dihydropteridin-6(5H)-one]	5.30 to 6.00	
CC[C@H]1C(=O)Nc2c(C)nc(N[C@H]3C[C@H](Oc4cnc(C(F)(F)F)nc4)C3)nc2N1C [Compound 645, (S)-7-ethyl-4,8-dimethyl-2-((trans-3-((2-(trifluoromethyl)pyrimidin-5-yl)oxy)cyclobutyl)amino)-7,8-dihydropteridin-6(5H)-one]	> 6.52	
Cc1nc(N[C@H]2C[C@H](NC(=O)Cc3ccc(C(F)(F)F)nc3)C2)nc2c1NC(=O)[C@H](C(C)C)N2C [Compound 560, N-(trans-3-(((S)-7-isopropyl-4,8-dimethyl-6-oxo-5,6,7,8-tetrahydropteridin-2-yl)amino)cyclobutyl)-2-(6-(trifluoromethyl)pyridin-3-yl)acetamide]	≤ 5.30	
CC[C@@H]1C(=O)Nc2c(C)nc(NCc3cnn(Cc4ccc(C(F)(F)F)nc4)c3)nc2N1C [Compound I-1635]		pIC50 ([2]; Homo sapiens, COLO 205, 5 h, R-isomer at C2 (corresponding to C2 S-isomer), 5 h): 5.30 to 6.00
Cc1cnc(C(F)(F)F)nc1-n1cc(CNc2nc(C)c3c(n2)N(C)[C@@H](C)C(=O)N3)cn1 [Compound 161, (7S)-4,7,8-trimethyl-2-(((1-(5-methyl-2-(trifluoromethyl)pyrimidin-4-yl)-1H-pyrazol-4-yl)methyl)amino)-7,8-dihydropteridin-6(5H)-one]	6.00 to 6.52	
Cc1nc(N[C@H]2C[C@H](Nc3cccc(C(F)(F)F)n3)C2)nc2c1NC(=O)[C@H](C(C)C)N2C [Compound 531, (S)-7-isopropyl-4,8-dimethyl-2-((trans-3-((6-(trifluoromethyl)pyridin-2-yl)amino)cyclobutyl)amino)-7,8-dihydropteridin-6(5H)-one]	6.00 to 6.52	
Cc1nc(N[C@@H]2CCc3nn(Cc4ccc(C(F)(F)F)nc4)cc32)nc2c1NC(=O)[C@H](C)N2C [Compound 547, (7S)-4,7,8-trimethyl-2-(((R)-2-((6-(trifluoromethyl)pyridin-3-yl)methyl)-2,4,5,6-tetrahydrocyclopenta[c]pyrazol-4-yl)amino)-7,8-dihydropteridin-6(5H)-one]	5.30 to 6.00	
Cc1nc(N[C@H]2CCc3nn(Cc4ccc(C(F)(F)F)nc4)cc32)nc2c1NC(=O)[C@H](C)N2C [Compound 546, (7S)-4,7,8-trimethyl-2-(((S)-2-((6-(trifluoromethyl)pyridin-3-yl)methyl)-2,4,5,6-tetrahydrocyclopenta[c]pyrazol-4-yl)amino)-7,8-dihydropteridin-6(5H)-one]	≤ 5.30	
Cc1nc(NCc2cnn(C[C@@H](C)c3ccccc3)c2)nc2c1NC(=O)[C@H](C)N2C [Compound 89, (7S)-4,7,8-trimethyl-2-(((1-((S)-2-phenylpropyl)-1H-pyrazol-4-yl)methyl)amino)-7,8-dihydropteridin-6(5H)-one]	> 6.52	

More lines, main results first:

pIC50 [2, 3]	SMILES	also measured
> 6.52	CC[C@H]1C(=O)Nc2c(C)nc(N[C@H]3C[C@H](Oc4ccc(C(F)(F)F)nc4)C3)nc2N1C [Compound 686, (S)-7-ethyl-4,8-dimethyl-2-((trans-3-((6-(trifluoromethyl)pyridin-3-yl)oxy)cyclobutyl)amino)-7,8-dihydropteridin-6(5H)-one]	pIC50 [1]: > 7.22; pEC50 (Colo-205 cells): > 6.22
> 6.52	Cc1nc(N[C@H]2C[C@@H](Nc3ccc(C#N)cn3)C2)nc2c1NC(=O)[C@H](C(C)C)N2C [Compound 716, 6-((cis-3-(((S)-7-isopropyl-4,8-dimethyl-6-oxo-5,6,7,8-tetrahydropteridin-2-yl)amino)cyclobutyl)amino)nicotinonitrile]	pIC50 [1]: > 7.22; pEC50 (Colo-205 cells): 5.70 to 6.22
> 6.52	Cc1nc(N[C@H]2C[C@H](Oc3cc(F)c(F)c(F)c3)C2)nc2c1NC(=O)[C@H](CO)N2C [Compound 677, (S)-7-(hydroxymethyl)-4,8-dimethyl-2-((trans-3-(3,4,5-trifluorophenoxy)cyclobutyl)amino)-7,8-dihydropteridin-6(5H)-one]	pIC50 [1]: 6.22 to 7.22
> 6.52	Cc1nc(N[C@H]2C[C@H](Oc3ccc(C(F)(F)F)nc3)C2)nc2c1NC(=O)[C@H](C(C)C)N2C [Compound 685, (S)-7-isopropyl-4,8-dimethyl-2-((trans-3-((6-(trifluoromethyl)pyridin-3-yl)oxy)cyclobutyl)amino)-7,8-dihydropteridin-6(5H)-one]	pIC50 [1]: > 7.22; pEC50 (Colo-205 cells): > 6.22
> 6.52	CO[C@H](C)[C@H]1C(=O)Nc2c(C)nc(N[C@H]3C[C@H](Oc4ccc(C(F)(F)F)nc4)C3)nc2N1C [Compound 684, (S)-7-((R)-1-methoxyethyl)-4,8-dimethyl-2-((trans-3-((6-(trifluoromethyl)pyridin-3-yl)oxy)cyclobutyl)amino)-7,8-dihydropteridin-6(5H)-one]	pIC50 [1]: > 7.22; pEC50 (Colo-205 cells): > 6.22
5.30 to 6.00	Cc1nc(N[C@H]2C[C@@H](Nc3ncc(C#N)cc3F)C2)nc2c1NC(=O)[C@H](C(C)C)N2C [Compound 715, 5-fluoro-6-((cis-3-(((S)-7-isopropyl-4,8-dimethyl-6-oxo-5,6,7,8-tetrahydropteridin-2-yl)amino)cyclobutyl)amino)nicotinonitrile]	
> 6.52	COC1(C2C(=O)Nc3c(C)nc(NCc4cnn(Cc5ccc(C(F)(F)F)nc5)c4)nc3N2C)CCC1 (centres unmarked) [Compound 661, 7-(1-methoxycyclobutyl)-4,8-dimethyl-2-(((1-((6-(trifluoromethyl)pyridin-3-yl)methyl)-1H-pyrazol-4-yl)methyl)amino)-7,8-dihydropteridin-6(5H)-one]	

— patent US20230312587A1, “PTERIDINONE COMPOUNDS AND USES THEREOF” (Vertex Pharmaceutical Incorporated, priority 2018, published 2023)
